The source of these data is US11384078B2, “5,6-fused-bicyclic compounds and compositions for the treatment of parasitic diseases” (NOVARTIS AG, priority 2017, dated 2022).

Type in all cases: cell-based
The subject of experiment [1] is Trypanosoma brucei brucei (Lister 427) strain. The experiment in a line: Assay for growth inhibition against Trypanosoma brucei brucei (Cell TiterGlo ATP luminescence). Particulars: Trypanosoma brucei, T. brucei brucei (Lister 427); read-out: T. Brucei (HAT) EC50. The method in brief:
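Growth read-out is cellular ATP by CellTiter-Glo luminescence, measured 30 min after reagent addition, following 2-day incubation at 37 °C in CO2. Parasites (10,000/mL, HMI-9 plus 10% FBS and 10% serum plus) faced 10 threefold dilutions in duplicate; IC50 taken as 50% growth inhibition versus untreated.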

Experiment [2] relates to Leishmania donovani axenic amastigote. Kind of experiment: In vitro assay for growth inhibition of Leishmania donovani axenic amastigote (Cell TiterGlo luminescence). Particulars: Leishmania donovani, L. donovani axenic amastigotes in vitro; read-out: L. donovani amastigotes EC50. The method, boiled down:
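Compound-treated wells received 9600 axenic amastigotes in RPMI 1640-based medium at pH 5.5 (37 °C, 5% CO2). Growth measured as ATP luminescence (CellTiter-Glo) after 2-day incubation; DMSO and reference compounds served as controls.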

Experiment [3] deals with L. donovani HU3 strain in mouse peritoneal macrophages. The experiment in a line: Assay for inhibition of parasitemia of Leishmania donovani in mouse macrophages (SYBR Green nuclei count, high-content imaging). The conditions noted are these: Leishmania donovani, Peritoneal macrophage, L. donovani in mouse peritoneal macrophages; read-out: L. donovani in Mouse Macrophages EC50. The method, boiled down: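 Parasite numbers were counted from SYBR Green-stained nuclei imaged by high-content microscopy after paraformaldehyde fixation and Triton permeabilization. Before this, compound was applied for 5 days at 37° C to BALB/c peritoneal macrophages (2×10^4/well) that had been exposed 24 h to 4×10^5 L. donovani HU3 amastigotes harvested from infected mouse spleens.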

Experiment [4] deals with Trypanosoma cruzi amastigotes cultured in 3T3 fibroblast cells. Kind of experiment: Assay for growth inhibition of kinetoplastid parasite Trypanosoma cruzi (beta-galactosidase Tulahuen strain, CPRG readout). Particulars: Trypanosoma cruzi, Fibroblast, T. cruzi amastigotes in 3T3 fibroblast cells; read-out: Buckner infectious T. cruzi EC50. The method in brief:
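3T3 fibroblasts (1,000 cells/well) plated overnight, treated with compound in DMSO, then infected with 10,000 Lac-Z-expressing Tulahuen trypomastigotes. After 6 days, 0.6 mM CPRG with 0.6% NP-40 added for 2 h at room temperature; absorbance gives relative intracellular amastigote numbers. Benznidazole and nifurtimox serve as positive controls.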

On to `Cc1nc(C)c(C(=O)Nc2ccc(F)c(-n3cc4cc(N5CCOCC5)cnc4n3)c2)o1` [Compound 158, N-{4-fluoro-3-[5-(morpholin-4-yl)-2H-pyrazolo[3,4-b]pyridin-2-yl]phenyl}-2,4-dimethyl-1,3-oxazole-5-carboxamide], for which the EC50 in experiment [1] is under 23 nM; in experiment [2] it was 16 nM; in experiment [3], 16 nM; in experiment [4], 15 nM.

Take `Cc1nc(C)c(C(=O)Nc2ccc(F)c(-n3cc4cc(NC(=O)OC(C)C)cnc4n3)c2)o1` [Compound 159, propan-2-yl N-{2-[5-(dimethyl-1,3-oxazole-5-amido)-2-fluorophenyl}-2H-pyrazolo[3,4-b]pyridin-5-yl}carbamate]: the half-maximal effective concentration (EC50) is under 23 nM in experiment [1], 13 nM in experiment [2], 17 nM in experiment [3] and 37 nM in experiment [4].

As for `O=C(Nc1ccc(F)c(-n2cc3cc(C4CCOCC4)cnc3n2)c1)N1CCC1` [Compound 160, N-{4-fluoro-3-[5-(oxan-4-yl)-2H-pyrazolo[3,4-b]pyridin-2-yl]phenyl}azetidine-1-carboxamide], the EC50 is under 23 nM in experiment [1], 4.3 nM in experiment [2], 9.8 nM in experiment [3] and 5.1 nM in experiment [4].

On to `O=C(Nc1ccc(F)c(-n2cc3cc(N4CCCC4)cnc3n2)c1)N1CC(F)(F)C1` [Compound 161, 3,3-difluoro-N-{4-fluoro-3-[5-(pyrrolidin-1-yl)-2H-pyrazolo[3,4-b]pyridin-2-yl]phenyl}azetidine-1-carboxamide], for which the EC50 in experiment [1] was under 23 nM; in experiment [2] it was 7.7 nM; in experiment [3], 7.3 nM; in experiment [4], 9.8 nM.

Turning to `O=C(Nc1ccc(F)c(-n2cc3cc(CC(F)(F)F)cnc3n2)c1)N1CC[C@@H](F)C1` [Compound 162, (3R)-3-fluoro-N-{4-fluoro-3-[5-(2,2,2-trifluoroethyl)-2H-pyrazolo[3,4-b]pyridin-2-yl]phenyl}pyrrolidine-1-carboxamide], the concentration for a half-maximal effect (EC50) is under 23 nM in experiment [1], 7 nM in experiment [2], 4.5 nM in experiment [3] and 1.8 nM in experiment [4].

For `O=C(Nc1ccc(F)c(-n2cc3cc(N4CCCC4)cnc3n2)c1)N1CCC1` [Compound 163, N-{4-fluoro-3-[5-(pyrrolidin-1-yl)-2H-pyrazolo[3,4-b]pyridin-2-yl]phenyl}azetidine-1-carboxamide], the concentration for a half-maximal effect (EC50) in experiment [1] is under 23 nM; in experiment [2], 5.8 nM; in experiment [3], 4.1 nM; in experiment [4] it was 2.7 nM.

In the case of `O=C(Nc1ccc(F)c(-n2cc3cc(CC(F)(F)F)cnc3n2)c1)N1CCC1` [Compound 164, N-{4-fluoro-3-[5-(2,2,2-trifluoroethyl)-2H-pyrazolo[3,4-b]pyridin-2-yl]phenyl}azetidine-1-carboxamide], the EC50 is under 23 nM in experiment [1], 6 nM in experiment [2], 10 nM in experiment [3] and 1.7 nM in experiment [4].

Consider `O=C(Nc1ccc(F)c(-n2cc3cc(C4CCOCC4)cnc3n2)c1)N1CC(F)(F)C1` [Compound 165, 3,3-difluoro-N-{4-fluoro-3-[5-(oxan-4-yl)-2H-pyrazolo[3,4-b]pyridin-2-yl]phenyl}azetidine-1-carboxamide], for which the half-maximal effective concentration (EC50) is under 23 nM in experiment [1], 10 nM in experiment [2], 10 nM in experiment [3] and 40 nM in experiment [4].

On to `O=C(Nc1ccc(F)c(-n2cc3cc(CC(F)(F)F)cnc3n2)c1)N1CC(F)(F)C1` [Compound 166, 3,3-difluoro-N-{4-fluoro-3-[5-(2,2,2-trifluoroethyl)-2H-pyrazolo[3,4-b]pyridin-2-yl]phenyl}azetidine-1-carboxamide], for which the EC50 in experiment [1] is under 23 nM; in experiment [2], 2.5 nM; in experiment [3], 3.7 nM; in experiment [4], 1.7 nM.

With `CN(C)c1cnc2nn(-c3cc(NC(=O)N4CC(F)C4)ccc3F)cc2c1` [Compound 167, N-{3-[5-(dimethylamino)-2H-pyrazolo[3,4-b]pyridin-2-yl]-4-fluorophenyl}-3-fluoroazetidine-1-carboxamide], the concentration giving a half-maximal response (EC50) was under 23 nM in experiment [1], 2.9 nM in experiment [2], 8.2 nM in experiment [3] and 2.2 nM in experiment [4].

Regarding `CC(C)OC(=O)Nc1cnc2nn(-c3cc(NC(=O)N4CC(F)C4)ccc3F)cc2c1` [Compound 168, Isopropyl (2-(2-fluoro-5-(3-fluoroazetidine-1-carboxamido)phenyl)-2H-pyrazolo[3,4-b]pyridin-5-yl)carbamate], the concentration giving a half-maximal response (EC50) is under 23 nM in experiment [1], 3.2 nM in experiment [2], 8.2 nM in experiment [3] and 27 nM in experiment [4].

As for `Cc1nc(C)c(C(=O)Nc2ccc(F)c(-n3cc4cc(C5CCOCC5)cnc4n3)c2)o1` [Compound 169, N-{4-fluoro-3-[5-(oxan-4-yl)-2H-pyrazolo[3,4-b]pyridin-2-yl]phenyl}-2,4-dimethyl-1,3-oxazole-5-carboxamide], the concentration giving a half-maximal response (EC50) is under 23 nM in experiment [1], 10 nM in experiment [2], 30 nM in experiment [3] and 14 nM in experiment [4].

Consider `CN(C)c1cnc2nn(-c3cc(NC(=O)N4CCC4)ccc3F)cc2c1` [Compound 170, N-{3-[5-(dimethylamino)-2H-pyrazolo[3,4-b]pyridin-2-yl]-4-fluorophenyl}azetidine-1-carboxamide], for which the EC50 in experiment [1] was under 23 nM; in experiment [2], 8 nM; in experiment [3], 11 nM; in experiment [4], 4.6 nM.

On to `O=C(Nc1ccc(F)c(-n2cc3cc(N4CC5(COC5)C4)cnc3n2)c1)N1CC(F)C1` [Compound 171, 3-fluoro-N-[4-fluoro-3-(5-{2-oxa-6-azaspiro[3.3]heptan-6-yl}-2H-pyrazolo[3,4-b]pyridin-2-yl)phenyl}azetidine-1-carboxamide], for which the EC50 in experiment [1] was under 23 nM; in experiment [2], 9.5 nM; in experiment [3] it was 16 nM; in experiment [4] it was 47 nM.

For the molecule `O=C(Nc1ccc(F)c(-n2cc3cc(N4C[C@@H]5C[C@H]4CO5)cnc3n2)c1)N1CC(F)C1` [Compound 172, 3-fluoro-N-(4-fluoro-3-{5-[(1S,4S)-2-oxa-5-azabicyclo[2.2.1]heptan-5-yl]-2H-pyrazolo[3,4-b]pyridin-2-yl]phenyl)azetidine-1-carboxamide], the concentration giving a half-maximal response (EC50) was under 23 nM in experiment [1], 6.7 nM in experiment [2], 11 nM in experiment [3] and 33 nM in experiment [4].

For the molecule `CC(C)c1cnc2nn(-c3cc(NC(=O)CCC(F)(F)F)ccc3F)cc2c1` [Compound 173, 4,4,4-trifluoro-N-(4-fluoro-3-(5-isopropyl-2H-pyrazolo[3,4-b]pyridin-2-yl)phenyl)butanamide], the half-maximal effective concentration (EC50) came out at 120 nM in experiment [1], 410 nM in experiment [2], 500 nM in experiment [3] and 140 nM in experiment [4].

Turning to `CC(C)c1cnc2nn(-c3cc(NC(=O)OCCC(F)(F)F)ccc3F)cc2c1` [Compound 174, 3,3,3-trifluoropropyl N-{4-fluoro-3-[5-(propan-2-yl)-2H-pyrazolo[3,4-b]pyridin-2-yl]phenyl}carbamate], the EC50 in experiment [1] turned out to be 1000 nM; in experiment [2], 2000 nM; in experiment [3], 2700 nM; in experiment [4] it was 720 nM.

`Cc1nc(C)c(C(=O)Nc2ccc(F)c(-n3cc4cc(CC(F)(F)F)cnc4n3)c2)o1` [Compound 175, N-{4-fluoro-3-[5-(2,2,2-trifluoroethyl)-2H-pyrazolo[3,4-b]pyridin-2-yl]phenyl}-2,4-dimethyl-1,3-oxazole-5-carboxamide]: the EC50 is under 23 nM in experiment [1], 24 nM in experiment [2], 8.1 nM in experiment [3] and 4.9 nM in experiment [4].

In the case of `CC(C)c1cnc2nn(-c3cc(NC(=O)N4CC[C@@H](F)C4)ccc3F)cc2c1` [Compound 195, (3R)-3-fluoro-N-{4-fluoro-3-[5-(propan-2-yl)-2H-pyrazolo[3,4-b]pyridin-2-yl]phenyl}pyrrolidine-1-carboxamide], the concentration for a half-maximal effect (EC50) in experiment [1] is under 23 nM; in experiment [2], 10 nM; in experiment [3], 6.4 nM; in experiment [4], 4 nM.

Turning to `CC(C)c1cnc2nn(-c3cc(NC(=O)c4ccco4)ccc3F)cc2c1` [Compound 196, N-{4-fluoro-3-[5-(propan-2-yl)-2H-pyrazolo[3,4-b]pyridin-2-yl]phenyl}furan-2-carboxamide], the EC50 was under 23 nM in experiment [1], 76 nM in experiment [2], 27000 nM in experiment [3] and 12 nM in experiment [4].

As for `O=C(Nc1ccc(F)c(-n2cc3cc(N4CC5CCC4CO5)cnc3n2)c1)N1CC(F)C1` (stereo not drawn) [Compound 197, 3-fluoro-N-[4-fluoro-3-(5-{2-oxa-5-azabicyclo[2.2.2]octan-5-yl}-2H-pyrazolo[3,4-b]pyridin-2-yl)phenyl}azetidine-1-carboxamide], the half-maximal effective concentration (EC50) stood at 5 nM in experiment [1], 199 nM in experiment [2], 13 nM in experiment [3] and 37 nM in experiment [4].
